Assay results reported in patent US20240166627A1, “Terpyridinedione compound or salt thereof, and preparation method and application thereof” (SHENZHEN SALUBRIS PHARMACEUTICALS CO., LTD., priority 2021, published 2024).
Converted amounts (≈) assume the structure as drawn.

Assays:
[1] = Determination of solubility; format: physicochemical; settings: aqueous buffer, thermodynamic from solid, 37° C. 1 h
Protocol: About 0.5 mg of a to-be-tested sample in a centrifuge tube is weighted, an appropriate amount of DMSO is added to completely dissolve the sample, and then methanol is added to make up to 1 ml.
(If there are more pH values to be investigated, the preparation method may be deduced by analogy).
3. The prepared control solution and test solution are simultaneously put into a 37° C. water bath and heated for 1 h, after 1 h, the solutions are taken out and cooled to room temperature, and then the solutions are filtered with a 0.22 μm filter membrane for sample injection.
4. The concentration of the sample in the test solution is calculated according to C=(A*(ms/vs))/AS, and experiment results are shown in Table 2.
Note: ms, vs and AS are the weight, volume and peak area of the sample in the control solution, respectively.
A is the peak area of the test solution.

[2] = Pharmacokinetic experiment in Beagle dogs (IV and PO); format: in vivo; settings: male, dog, plasma
Text: Polyethylene glycol 400 (batch number: GORKREUT, Saen Chemical Technology (Shanghai) Co., Ltd.); DMSO (batch number: 20200319, GHTECH (Guangdong) Co., Ltd.); and normal saline (batch number: C20052604, Jiangxi Kelun Pharmaceutical Co., Ltd.). An LC-MS instrument (Thermo Fisher Ultimate 3000 UPLC, TSQ QUANTUM ULTRA TSQ Quantum GC).
5 male Beagle dogs with weights being 5 kg to 7 kg, purchased from Beijing Mars Biotechnology Co., Ltd. […]
After the above mixture is given to the dogs through intragastric administration (n=3) or intravenous administration (n=2), about 1 mL of blood is collected from the forelimb or hindlimb vein with a scalp needle, respectively, at 5 min (intravenous administration only), 15 min, 30 min, 1 h, 2 h, 4 h, 6 h, 8 h, 24 h to put into blood collection tubes containing EDTA-K2 anticoagulant; centrifugation is performed for 10 min at 4000 rpm to separate plasma; and then the tubes are stored at −80° C. for testing.
A certain amount of a test sample is accurately weighted and dissolved with DMSO to 2 mg/mL, as a stock solution. The stock solution is diluted to 30000, 10000, 3000, 1000, 300, 100, 50, 30, and 10 ng/mL by using acetonitrile:water (1:1), to obtain standard curve working solutions. 5 μL of the working solution is added to 45 μL of blank canine plasma; and well mixing is performed through vortex, to prepare into standard curve samples equivalent to plasma concentrations of 3000, 1000, 300, 100, 30, 10, 5, 3, and 1 ng/mL. 30 μL of the standard curve sample and the collected plasma sample (plasma collected at 5 min, 15 min, and 30 min of intravenous administration is diluted 5-fold) are added to 150 μL of a propranolol acetonitrile solution (internal standard, 50 ng/mL) to precipitate protein, then 100 μL of water is added to well mix through vortex; centrifugation is performed for 5 min at 4000 rpm; and supernatant is taken for LC-MS analysis. LC-MS detection conditions include the following.
Chromatographic column: Waters ACQUITY™ PREMIER HSS T3, 50*2.1 mm, 1.8 μm.
Mobile phase A: water (0.1% formic acid); mobile phase B: acetonitrile; flow rate: 0.5 mL/min; and gradient elution is shown in Table 3 below.
After LC-MS detection of blood drug concentration, and a non-compartment model of WinNonlin 6.1 software is adopted to calculate pharmacokinetic parameters of beagle dogs after administration.

[3] = system: production of TNFα in U937; experiment: Releasing TNFα from U937 induced by LPS; format: cell-based; settings: Homo sapiens, U-937; PMA-differentiated U937, LPS 100 ng/ml, 4 h; read-out: IC50 value that the compound inhibits the production of TNFα
Text: Cytokine regulation in human monocytes has shown that the p38 pathway is the key to the biosynthesis of a plurality of pro-inflammatory cytokines including TNFα, IL-1β and IL-6. Therefore, the inhibition of the p38 MAPK pathway is to reduce inflammatory response by reducing the biosynthesis of the pro-inflammatory cytokines. […] This is a reflection of the effect of the compound in the present invention to facilitate reduction of inflammation, which is useful in the treatment of various diseases, including chronic inflammatory diseases, acute inflammatory diseases, or self-inflammatory diseases. The potency and efficacy of the p38 inhibitor in blocking cytokine production are evaluated using a human U937 cell line.
A 1640 medium with an article number being A10491-01, Gibco; penicillin-streptomycin with an article number being 15140-122, Gibco; fetal bovine serum with an article number being 10099-141C, Gibco; PBS with an article number being 10010-031, Gibco; LPS with an article number being L2880, Sigma; PMA with an article number being P1585, Sigma; dimethyl sulfoxide with an article number being D8418-1L, Sigma; and a TNFα kit with an article number being K151QWD-4, MSD.
A 96-well plate with an article number being 3599, Corning; a plate-vibrating device with an article number being QB-9002, QILINBEIER; a centrifuge with an article number being 5810R, Eppendorf; a carbon dioxide incubator with an article number being 371, Thermo; a counter with an article number being C10281, Gibco; a microscope with an article number being CKX41, OLYMPUS; and an MSD plate reader with an article number being 1201 MESO SECTOR 600, MSD.
U937, ATCC with an article number being CRL-1593.2.
About 2 mg of a drug is weighted; a mother solution is prepared to 10 mM (which is calculated by free alkali) by means of DMSO; and the mother solution is diluted 10-fold to 1 mM, and then is successively diluted 4-fold to 250 μM, 62.5 μM, 15.6 μM, 3.9 μM, 0.97 μM, 0.24 μM, and 0.061 μM. The above series of diluted DMSO drugs is diluted 20-fold as working solutions by using media.
At Day 0, 10000/well inoculation is performed, stimulation is performed for 48 h with 20 ng/ml of PMA, and culture is performed at 37° C., 5% CO2. • At Day 2, 1. Supernatant is removed from differentiated U937, cleaning is performed once with PBS, and 96 μl of the 1640 medium is added. • 2. 2 μl of the compound containing (DMSO with a final concentration being 0.1%), and culture is performed for 30 min at 37° C., 5% CO2. • 3. 2 μl of LPS (a final concentration being 100 ng/ml) is added, cells are stimulated, and culture is performed for 4 h at 37° C., 5% CO2. • 4. Centrifugation is performed, supernatant is taken, and content of TNFα in the supernatant is determined through ELISA.
The content of TNFα corresponding to each well is calculated by using a standard curve in the kit.
The compound IC50 is calculated by using a GraphPad nonlinear fitting formula, and for an experimental result, refer to Table 1.

p38α/MK2 complex = p38α/MK2 complex (Homo sapiens, UniProt P49137+Q16539); experiment: p38α/MK2 complex kinase screening experiment (IMAP FP); format: biochemical; settings: p38α 0.2 nM, MK2 unactive 1 nM, HSP27 substrate 1 μM, ATP 10 μM; read-out: IC50 value that the compound inhibits p38α/MK2 complex
Chain of p38α/MK2 complex (Q16539 whole entry): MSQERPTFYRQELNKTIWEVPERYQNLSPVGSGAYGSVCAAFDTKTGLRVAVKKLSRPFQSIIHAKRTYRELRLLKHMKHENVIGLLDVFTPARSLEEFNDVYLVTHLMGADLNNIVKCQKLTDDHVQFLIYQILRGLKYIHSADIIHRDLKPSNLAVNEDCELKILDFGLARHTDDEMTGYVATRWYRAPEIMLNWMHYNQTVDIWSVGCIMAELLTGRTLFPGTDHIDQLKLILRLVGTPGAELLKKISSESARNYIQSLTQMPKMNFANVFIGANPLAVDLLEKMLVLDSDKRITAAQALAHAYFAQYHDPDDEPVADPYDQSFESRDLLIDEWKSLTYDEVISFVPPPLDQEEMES
Chain of p38α/MK2 complex (P49137 whole entry): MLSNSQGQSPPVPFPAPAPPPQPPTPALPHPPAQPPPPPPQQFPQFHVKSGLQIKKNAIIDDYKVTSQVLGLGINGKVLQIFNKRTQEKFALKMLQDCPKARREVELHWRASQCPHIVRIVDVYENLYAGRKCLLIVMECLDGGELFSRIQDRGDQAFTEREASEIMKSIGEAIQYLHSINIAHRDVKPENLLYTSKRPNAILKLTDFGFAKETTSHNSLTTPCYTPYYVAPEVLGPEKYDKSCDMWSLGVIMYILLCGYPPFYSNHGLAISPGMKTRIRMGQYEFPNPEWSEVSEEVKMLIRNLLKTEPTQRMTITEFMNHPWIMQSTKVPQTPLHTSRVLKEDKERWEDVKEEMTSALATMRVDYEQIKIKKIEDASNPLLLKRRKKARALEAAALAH
Protocol: A certain amount of a drug is weighted and prepared into a 10 mM of mother solution by using DMSO; the mother solution is diluted to 100 μM (100× working solution) in two steps; and then, the solution is diluted 3-fold to 33.33 μM, 11.11 μM, 3.70 μM, 1.23 μM, 0.41 μM, 0.14 μM, 0.046 μM, 0.015 μM, and 0.005 μM, successively. DMSO control is also arranged.
Then, a series of diluted DMSO drugs are diluted 25 folds with 1×IMAP Reaction Buffer as a 4× drug working solution.
10 gradient concentrations and 2 duplicated wells are set to each group of compounds; and a DMSO control group and a negative control group (DMSO, no ATP) are additionally set.
• c), after 1 h of incubation at room temperature, 1× Progressive Binding Solution is added to end the enzymatic reaction; after 30 min of incubation, a BMGPHERASTER FSX multifunctional microplate reader is used to detect a Fluorescence Polarization (FP) signal [FP(Ex485/Em520/Em520 nm)].

Compound | IC50 [3] [nM] | IC50 (p38α/MK2 complex) [nM] | further results
Cc1cnc(-n2cccc(C(C)(C)O)c2=O)cc1-n1c(C)cc(OCc2ncc(F)cc2F)cc1=O [Embodiment 2, 4″-((3,5-difluoropyridine-2-yl)methoxy)-3-(2-hydroxypropane-2-yl)-5′,6″-dimethyl-2H,2″H-[1,2′:4′,1″-terpyridine]-2,2″-diketone] | – | – | solubility at 1 h ([1]; pH = 2.0, PBS buffer): 192 µg/mL (≈ 388 µM); solubility at 1 h ([1]; pH = 7.4, PBS buffer): 234 µg/mL (≈ 474 µM)
Cc1cnc(-n2cccc(C(C)(C)O)c2=O)cc1-n1c(C)cc(OCc2ncc(F)cc2F)c(Cl)c1=O (racemic) [Embodiment 1, 3″-chloro-4″-((3,5-difluoropyridine-2-yl)methoxy)-3-(2-hydroxypropane-2-yl)-5′,6″-dimethyl-2H,2″H-[1,2′:4′,1″-terpyridine]-2,2″-diketone] | – | – | AUC(0-t) ([2]; IV 1 mg/kg): 2870 ng·h/mL; Cmax ([2]; IV 1 mg/kg): 1510 ng/mL; clearance ([2]; IV 1 mg/kg): 6.15 mL/min/kg; bioavailability ([2]; PO 5 mg/kg vs IV 1 mg/kg): 229%
Cc1cnc(-n2cccc(C(C)(C)O)c2=O)cc1-n1c(C)cc(OCc2ncccc2F)c(Cl)c1=O [Embodiment 20, 3″-chloro-4″-((3-fluoropyridine-2-yl)methoxy)-3-(2-hydroxypropane-2-yl)-5′,6″-dimethyl-2H,2″H-[1,2′:4′,1″-terpyridine]-2,2″-diketone] | 6.86 | – | solubility at 1 h ([1]; pH = 2.0, PBS buffer): 769 µg/mL (≈ 1500 µM); solubility at 1 h ([1]; pH = 7.4, PBS buffer): 773 µg/mL (≈ 1510 µM)
Cc1cnc(-n2cccc(C(C)(C)O)c2=O)cc1-n1c(C)cc(OCc2ncc(Br)cc2F)c(Cl)c1=O [Embodiment 16, 3″-chloro-4″-((3-fluoro-5-bromopyridine-2-yl)methoxy)-3-(2-hydroxypropane-2-yl)-5′,6″-dimethyl-2H,2″H-[1,2′:4′,1″-terpyridine]-2,2″-diketone] | 3.31 | 3.35 | –
Cc1cnc(-n2cccc(C(C)(C)O)c2=O)cc1-n1c(C)cc(OCc2ncc(F)cc2F)c(Br)c1=O [Embodiment 41, 3″-bromo-4″-((3,5-difluoropyridine-2-yl)methoxy)-3-(2-hydroxypropane-2-yl)-5′,6″-dimethyl-2H,2″H-[1,2′:4′,1″-terpyridine]-2,2″-diketone] | – | 1.58 | –
Cc1cnc(-n2cccc(C(C)(C)O)c2=O)cc1-n1c(C)cc(OCc2cccc(F)c2F)c(Cl)c1=O [Embodiment 17, 3″-chloro-4″-((2,3-difluorobenzyl)oxy)-3-(2-hydroxypropane-2-yl)-5′,6″-dimethyl-2H,2″H-[1,2′:4′,1″-terpyridine]-2,2″-diketone] | 1.73 | 1.33 | –
Cc1cnc(-n2cccc(C(C)(C)O)c2=O)cc1-n1c(C)cc(OCc2ccccn2)c(Cl)c1=O [Embodiment 3] | 14.7 | – | solubility at 1 h ([1]; pH = 2.0, PBS buffer): 1290 µg/mL (≈ 2610 µM); solubility at 1 h ([1]; pH = 7.4, PBS buffer): 140 µg/mL (≈ 284 µM)
Cc1cnc(-n2cccc(C3CCOCC3)c2=O)cc1-n1c(C)cc(OCc2ncc(F)cc2F)c(Cl)c1=O [Embodiment 40, 3″-chloro-4″-((3,5-difluoropyridine-2-yl)methoxy)-5′,6″-dimethyl-3-(tetrahydro-2H-pyran-4-yl)-2H, 2″H-[1,2′:4′,1″-terpyridine]-2,2″-diketone] | – | 2.85 | –
Cc1cnc(-n2cccc(C(C)(C)O)c2=O)cc1-n1c(C)cc(OCc2ncc(F)cc2F)c(Cl)c1=O (single isomer, unassigned) [Comparative example 1A, reference compound] | – | 0.53 | –
CCc1cnc(-n2cccc(C(C)(C)O)c2=O)cc1-n1c(C)cc(OCc2ncc(F)cc2F)c(Cl)c1=O [Embodiment 42, 3″-chloro-5′-ethyl-4″-((3,5-difluoropyridine-2-yl)methoxy)-3-(2-hydroxypropane-2-yl)-6″-methyl-2H,2″H-[1,2′:4′,1″-terpyridine]-2,2″-diketone] | – | 3.14 | –
CCC(C)(O)c1cccn(-c2cc(-n3c(C)cc(OCc4ncc(F)cc4F)c(Cl)c3=O)c(C)cn2)c1=O (stereo not shown) [Embodiment 26, 3″-chloro-4″-((3,5-difluoropyridine-2-yl)methoxy)-3-(2-hydroxybutane-2-yl)-5′,6″-dimethyl-2H,2″H-[1,2′:4′,1″-terpyridine]-2,2″-diketone] | 2.84 | 2.26 | –
